Data taken from patent US9328138B2 (priority 2011, dated 2016).

How the values were obtained:
[1] = target: T1, HCV genotype 1b (BK) NS3 modified enzyme with a R155K mutation (Hepatitis C virus genotype 1b, UniProt P26663, R1181K); assay: HCV NS3 protease time-resolved fluorescence (TRF) assay, genotype 1b R155K; assay type: biochemical; settings: Ki 1b R155K, genotype 1b (BK) NS3 R155K; single value
T1 construct: HCV genotype 1b (BK) NS3 modified enzyme
In short: (§1)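 Pre-incubation of NS3/NS4A protease with inhibitor for 10 min in pH 7.5 HEPES buffer with 10 mM DTT; 25 nM TRF peptide substrate, hydrolysis 6 h at room temperature. Fluorescence read at ex 340/em 615 nm with 400 μs delay, enzyme level set for S/B 5-20; IC50 by four-parameter fit.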

[2] = target: HCV NS3 protease genotype 3a (3A-1) (Hepatitis C virus genotype 3a, UniProt Q81258); assay: HCV NS3 protease time-resolved fluorescence (TRF) assay, genotype 3a; assay type: biochemical; settings: Ki 3a
In short: as §1

SMILES	Ki [1] [pM]	Ki [2] [pM]
C=C[C@@H]1C[C@]1(NC(=O)[C@@H]1C[C@@H]2CN1C(=O)[C@H](C(C)(C)C)NC(=O)O[C@@H]1C[C@H]1CCCCCc1c(nc3ccccc3c1OCCCCN1CCOCC1)O2)C(=O)NS(=O)(=O)C1(C)CC1 [Example 150, (1aR,5S,8S,10R,22aR)-5-tert-butyl-N-[(1R,2S)-2-ethenyl-1-{[(1-methylcyclopropyl)sulfonyl]carbamoyl}cyclopropyl]-17-[4-(morpholin-4-yl)butoxy]-3,6-dioxo-1,1a,3,4,5,6,9,10,18,19,20,21, 22,22a-tetradecahydro-8H-7,10-methanocyclopropa[18,19][1,10,3,6] dioxadiazacyclononadecino [11,12-b]quinoline-8-carboxamide]	120	1300
C=C[C@@H]1C[C@]1(NC(=O)[C@@H]1C[C@@H]2CN1C(=O)[C@H](C(C)(C)C)NC(=O)O[C@@H]1C[C@H]1CCCCCc1c(nc3cc(F)ccc3c1OCCCN1CCCC1)O2)C(=O)NS(=O)(=O)C1(C)CC1 [Example 151, (1aR,5S,8S,10R,22aR)-5-tert-butyl-N-[(1R,2S)-2-ethenyl-1-{[(1-methylcyclopropyl)sulfonyl]carbamoyl}cyclopropyl]-14-fluoro-3,6-dioxo-17-[3-(pyrrolidin-1-yl)propoxy]-1,1a,3,4,5,6,9,10,18, 19,20,21,22,22a-tetradecahydro-8H-7,10-methanocyclopropa[18,19][1,10,3,6] dioxadiazacyclononadecino[11,12-b] quinoline-8-carboxamide]	74	620
C=C[C@@H]1C[C@]1(NC(=O)[C@@H]1C[C@@H]2CN1C(=O)[C@H](C(C)(C)C)NC(=O)O[C@@H]1C[C@H]1CCCCCc1c(nc3cc(F)ccc3c1OCCCN1CCOCC1)O2)C(=O)NS(=O)(=O)C1(C)CC1 [Example 152, (1aR,5S,8S,10R,22aR)-5-tert-butyl-N-[(1R,2S)-2-ethenyl-1-{[(1-methylcyclopropyl)sulfonyl]carbamoyl}cyclopropyl]-14-fluoro-17-[3-(morpholin-4-yl)propoxy]-3,6-dioxo-1,1a,3,4,5,6,9, 10,18,19,20,21,22,22a-tetradecahydro-8H-7,10-methanocyclopropa[18,19] [1,10,3,6]dioxadiaza cyclononadecino[11,12-b]quinoline-8-carboxamide]	250	1500
C=C[C@@H]1C[C@]1(NC(=O)[C@@H]1C[C@@H]2CN1C(=O)[C@H](C(C)(C)C)NC(=O)O[C@@H]1C[C@H]1CCCCCc1c(nc3c(OC)cccc3c1OCCCN1CC3(COC3)C1)O2)C(=O)NS(=O)(=O)C1(C)CC1 [Example 153, (1aR,5S,8S,10R,22aR)-5-tert-butyl-N-[(1R,2S)-2-ethenyl-1-{[(1-methylcyclopropyl)sulfonyl]carbamoyl}cyclopropyl]-13-methoxy-17-[3-(2-oxa-6-azaspiro[3.3]hept-6-yl)propoxy]-3,6-dioxo-1,1a, 3,4,5,6,9,10,18,19,20,21,22,22a-tetradeca hydro-8H-7,10-methanocyclopropa[18,19][1,10,3,6] dioxadiazacyclononadecino [11,12-b]quinoline-8-carboxamide]	59	610
C=C[C@@H]1C[C@]1(NC(=O)[C@@H]1C[C@@H]2CN1C(=O)[C@H](C(C)(C)C)NC(=O)O[C@@H]1C[C@H]1CCCCCc1c(nc3ccccc3c1OCCCN1CC3(CCC3)C1)O2)C(=O)NS(=O)(=O)C1(C)CC1 [Example 154, (1aR,5S,8S,10R,22aR)-17-[3-(2-azaspiro[3.3]hept-2-yl)propoxy]-5-tert-butyl-N-[(1R,2S)-2-ethenyl-1-{[(1-methylcyclopropyl)sulfonyl]carbamoyl}cyclopropyl]-3,6-dioxo-1,1a,3,4,5,6,9,10,18,19,20, 21,22,22a-tetradecahydro-8H-7,10-methanocyclopropa[18,19] [1,10,3,6]dioxadiazacyclononadecino [11,12-b]quinoline-8-carboxamide]	110	1500
C=C[C@@H]1C[C@]1(NC(=O)[C@@H]1C[C@@H]2CN1C(=O)[C@H](C(C)(C)C)NC(=O)O[C@@H]1C[C@H]1CCCCCc1c(nc3ccccc3c1OCCCN1CC(F)C1)O2)C(=O)NS(=O)(=O)C1(C)CC1 [Example 155, (1aR,5S,8S,10R,22aR)-5-tert-butyl-N-[(1R,2S)-2-ethenyl-1-{[(1-methylcyclopropyl)sulfonyl]carbamoyl}cyclopropyl]-17-[3-(3-fluoroazetidin-1-yl)propoxy]-3,6-dioxo-1,1a,3,4,5,6,9,10,18,19,20, 21,22,22a-tetradecahydro-8H-7,10-methanocyclopropa[18,19][1,10,3,6] dioxadiazacyclononadecino [11,12-b]quinoline-8-carboxamide]	110	1400
C=C[C@@H]1C[C@]1(NC(=O)[C@@H]1C[C@@H]2CN1C(=O)[C@H](C(C)(C)C)NC(=O)O[C@@H]1C[C@H]1CCCCCc1c(nc3ccccc3c1OCCCN1CCC(OC)CC1)O2)C(=O)NS(=O)(=O)C1(C)CC1 [Example 156, (1aR,5S,8S,10R,22aR)-5-tert-butyl-N-[(1R,2S)-2-ethenyl-1-{[(1-methylcyclopropyl)sulfonyl]carbamoyl}cyclopropyl]-17-[3-(4-methoxypiperidin-1-yl)propoxy]-3,6-dioxo-1,1a,3,4,5,6,9, 10,18,19,20,21,22,22a-tetradecahydro-8H-7,10-methanocyclopropa[18,19] [1,10,3,6]dioxadiaza cyclononadecino[11,12-b]quinoline-8-carboxamide]	79	840
C=C[C@@H]1C[C@]1(NC(=O)[C@@H]1C[C@@H]2CN1C(=O)[C@H](C(C)(C)C)NC(=O)O[C@@H]1C[C@H]1CCCCCc1c(nc3ccccc3c1OCCCN1CC(OC)C1)O2)C(=O)NS(=O)(=O)C1(C)CC1 [Example 157, (1aR,5S,8S,10R,22aR)-5-tert-butyl-N-[(1R,2S)-2-ethenyl-1-{[(1-methylcyclopropyl)sulfonyl]carbamoyl}cyclopropyl]-17-[3-(3-methoxyazetidin-1-yl)propoxy]-3,6-dioxo-1,1a,3,4,5,6,9,10, 18,19,20,21,22,22a-tetradecahydro-8H-7,10-methanocyclopropa[18,19] [1,10,3,6]dioxadiazacyclononadecino [11,12-b]quinoline-8-carboxamide]	49	760
C=C[C@@H]1C[C@]1(NC(=O)[C@@H]1C[C@@H]2CN1C(=O)[C@H](C(C)(C)C)NC(=O)O[C@@H]1C[C@H]1CCCCCc1c(nc3ccccc3c1OCCCN1CCCC(F)C1)O2)C(=O)NS(=O)(=O)C1(C)CC1 (stereo partly drawn) [Example 158, (1aR,5S,8S,10R,22aR)-5-tert-butyl-N-[(1R,2S)-2-ethenyl-1-{[(1-methylcyclopropyl)sulfonyl]carbamoyl}cyclopropyl]-17-[3-(3-fluoropiperidin-1-yl)propoxy]-3,6-dioxo-1,1a,3,4,5,6,9,10,18,19, 20,21,22,22a-tetradecahydro-8H-7,10-methanocyclopropa[18,19][1,10,3,6] dioxadiazacyclononadecino[11,12-b] quinoline-8-carboxamide]	190	2600
C=C[C@@H]1C[C@]1(NC(=O)[C@@H]1C[C@@H]2CN1C(=O)[C@H](C(C)(C)C)NC(=O)O[C@@H]1C[C@H]1CCCCCc1c(nc3cc(C(C)C)ccc3c1OCCCN1CCCC1)O2)C(=O)NS(=O)(=O)C1(C)CC1 [Example 159, (1aR,5S,8S,10R,22aR)-5-tert-butyl-N-[(1R,2S)-2-ethenyl-1-{[(1-methylcyclopropyl)sulfonyl]carbamoyl}cyclopropyl]-3,6-dioxo-14-(propan-2-yl)-17-[3-(pyrrolidin-1-yl)propoxy]-1,1a,3,4,5,6,9, 10,18,19,20,21,22,22a-tetradecahydro-8H-7,10-methanocyclopropa[18,19] [1,10,3,6]dioxadiazacyclononadecino [11,12-b]quinoline-8-carboxamide]	50	530
C=C[C@@H]1C[C@]1(NC(=O)[C@@H]1C[C@@H]2CN1C(=O)[C@H](C(C)(C)C)NC(=O)O[C@@H]1C[C@H]1CCCCCc1c(nc3cc(C(C)C)ccc3c1OCCCNC(C)C)O2)C(=O)NS(=O)(=O)C1(C)CC1 [Example 160, (1aR,5S,8S,10R,22aR)-5-tert-butyl-N-[(1R,2S)-2-ethenyl-1-{[(1-methylcyclopropyl)sulfonyl]carbamoyl}cyclopropyl]-3,6-dioxo-14-(propan-2-yl)-17-[3-(propan-2-ylamino)propoxy]-1,1a,3,4,5,6,9, 10,18,19,20,21,22,22a-tetradeca hydro-8H-7,10-methanocyclopropa[18,19] [1,10,3,6]dioxadiazacyclononadecino [11,12-b]quinoline-8-carboxamide]	53	440
C=C[C@@H]1C[C@]1(NC(=O)[C@@H]1C[C@@H]2CN1C(=O)[C@H](C(C)(C)C)NC(=O)O[C@@H]1C[C@H]1CCCCCc1c(nc3cc(C(C)C)ccc3c1OCCCN1CCOCC1)O2)C(=O)NS(=O)(=O)C1(C)CC1 [Example 161, (1aR,5S,8S,10R,22aR)-5-tert-butyl-N-[(1R,2S)-2-ethenyl-1-{[(1-methylcyclopropyl)sulfonyl]carbamoyl}cyclopropyl]-17-[3-(morpholin-4-yl)propoxy]-3,6-dioxo-14-(propan-2-yl)-1,1a,3,4,5,6,9,10,18,19,20,21,22,22a-tetradecahydro-8H-7,10-methanocyclopropan[18,19] [1,10,3,6]dioxadiazacyclononadecino [11,12-b]quinoline-8-carboxamide]	310	2800
